Data as given in PubChem BioAssay AID1259407 (Chemical Carcinogenesis Research Information System (CCRIS), 2018).
Active and inactive are the calls of the source. The rule behind the calls is not given here.

System: CCRIS mutagenicity, Ames/micronucleus/aberration tests
Assay: CCRIS mutagenicity studies
Excerpt: The CCRIS database contains chemical records with carcinogenicity, mutagenicity, tumor promotion, and tumor inhibition test results. It was developed by the National Cancer Institute (NCI). Data are derived from studies cited in primary journals, current awareness tools, NCI reports, and other sources. Test results have been reviewed by experts in carcinogenesis and mutagenesis.
CCRIS provides historical information from the years 1985 - 2011. It is no longer updated.
This is an archive assay for CCRIS mutagenicity studies.

[1] = Test System: AMES SALMONELLA TYPHIMURIUM, Strain/Indicator: TA98, Metabolic Activation: HAMSTER, LIVER, S-9, AROCLOR 1254 (10%), Method: PREINCUBATION
[2] = Test System: AMES SALMONELLA TYPHIMURIUM, Strain/Indicator: TA98, Metabolic Activation: NONE, Method: PREINCUBATION
[3] = Test System: AMES SALMONELLA TYPHIMURIUM, Strain/Indicator: TA98, Metabolic Activation: RAT, LIVER, S-9, AROCLOR 1254 (10%), Method: PREINCUBATION
[4] = Test System: AMES SALMONELLA TYPHIMURIUM, Strain/Indicator: TA100, Metabolic Activation: HAMSTER, LIVER, S-9, AROCLOR 1254 (10%), Method: PREINCUBATION
[5] = Test System: AMES SALMONELLA TYPHIMURIUM, Strain/Indicator: TA100, Metabolic Activation: NONE, Method: PREINCUBATION
[6] = Test System: AMES SALMONELLA TYPHIMURIUM, Strain/Indicator: TA100, Metabolic Activation: RAT, LIVER, S-9, AROCLOR 1254 (10%), Method: PREINCUBATION
[7] = Test System: AMES SALMONELLA TYPHIMURIUM, Strain/Indicator: TA1535, Metabolic Activation: HAMSTER, LIVER, S-9, AROCLOR 1254 (10%), Method: PREINCUBATION
[8] = Test System: AMES SALMONELLA TYPHIMURIUM, Strain/Indicator: TA1535, Metabolic Activation: NONE, Method: PREINCUBATION
[9] = Test System: AMES SALMONELLA TYPHIMURIUM, Strain/Indicator: TA1535, Metabolic Activation: RAT, LIVER, S-9, AROCLOR 1254 (10%), Method: PREINCUBATION

## CC1CCCC1
Test System: AMES SALMONELLA TYPHIMURIUM, Strain/Indicator: TA97, Metabolic Activation: HAMSTER, LIVER, S-9, AROCLOR 1254 (10%), Method: PREINCUBATION
  mutagenic call: inactive; negative
Test System: AMES SALMONELLA TYPHIMURIUM, Strain/Indicator: TA97, Metabolic Activation: HAMSTER, LIVER, S-9, AROCLOR 1254 (30%), Method: PREINCUBATION
  mutagenic call: inactive; negative
Test System: AMES SALMONELLA TYPHIMURIUM, Strain/Indicator: TA97, Metabolic Activation: NONE, Method: PREINCUBATION
  mutagenic call: inactive; negative
Test System: AMES SALMONELLA TYPHIMURIUM, Strain/Indicator: TA97, Metabolic Activation: RAT, LIVER, S-9, AROCLOR 1254 (10%), Method: PREINCUBATION
  mutagenic call: inactive; negative
Test System: AMES SALMONELLA TYPHIMURIUM, Strain/Indicator: TA97, Metabolic Activation: RAT, LIVER, S-9, AROCLOR 1254 (30%), Method: PREINCUBATION
  mutagenic call: inactive; negative
[1]
  mutagenic call: inactive; negative
Test System: AMES SALMONELLA TYPHIMURIUM, Strain/Indicator: TA98, Metabolic Activation: HAMSTER, LIVER, S-9, AROCLOR 1254 (30%), Method: PREINCUBATION
  mutagenic call: inactive; negative
[2]
  mutagenic call: inactive; negative
[3]
  mutagenic call: inactive; negative
Test System: AMES SALMONELLA TYPHIMURIUM, Strain/Indicator: TA98, Metabolic Activation: RAT, LIVER, S-9, AROCLOR 1254 (30%), Method: PREINCUBATION
  mutagenic call: inactive; negative
[4]
  mutagenic call: inactive; negative
Test System: AMES SALMONELLA TYPHIMURIUM, Strain/Indicator: TA100, Metabolic Activation: HAMSTER, LIVER, S-9, AROCLOR 1254 (30%), Method: PREINCUBATION
  mutagenic call: inactive; negative
[5]
  mutagenic call: inactive; negative
[6]
  mutagenic call: inactive; negative
Test System: AMES SALMONELLA TYPHIMURIUM, Strain/Indicator: TA100, Metabolic Activation: RAT, LIVER, S-9, AROCLOR 1254 (30%), Method: PREINCUBATION
  mutagenic call: inactive; negative
[7]
  mutagenic call: inactive; negative
Test System: AMES SALMONELLA TYPHIMURIUM, Strain/Indicator: TA1535, Metabolic Activation: HAMSTER, LIVER, S-9, AROCLOR 1254 (30%), Method: PREINCUBATION
  mutagenic call: inactive; negative
[8]
  mutagenic call: inactive; negative
[9]
  mutagenic call: inactive; negative
Test System: AMES SALMONELLA TYPHIMURIUM, Strain/Indicator: TA1535, Metabolic Activation: RAT, LIVER, S-9, AROCLOR 1254 (30%), Method: PREINCUBATION
  mutagenic call: inactive; negative

## CC(O)CN(CC(C)O)CC(C)O (stereo not given)
[1]
  mutagenic call: inactive; negative
[2]
  mutagenic call: inactive; negative
[3]
  mutagenic call: inactive; negative
[4]
  mutagenic call: inactive; negative
[5]
  mutagenic call: inactive; negative
[6]
  mutagenic call: inactive; negative
[7]
  mutagenic call: inactive; negative
[8]
  mutagenic call: inactive; negative
[9]
  mutagenic call: inactive; negative
Test System: AMES SALMONELLA TYPHIMURIUM, Strain/Indicator: TA1537, Metabolic Activation: HAMSTER, LIVER, S-9, AROCLOR 1254 (10%), Method: PREINCUBATION
  mutagenic call: inactive; negative
Test System: AMES SALMONELLA TYPHIMURIUM, Strain/Indicator: TA1537, Metabolic Activation: NONE, Method: PREINCUBATION
  mutagenic call: inactive; negative
Test System: AMES SALMONELLA TYPHIMURIUM, Strain/Indicator: TA1537, Metabolic Activation: RAT, LIVER, S-9, AROCLOR 1254 (10%), Method: PREINCUBATION
  mutagenic call: inactive; negative

## CC(=O)N(N=O)c1ccc2c(c1)Cc1ccccc1-2
Test System: CHINESE HAMSTER OVARY, Strain/Indicator: CHO/6-THIOGUANINE (HGPRT), Metabolic Activation: NONE, Method: STANDARD PLATE
  mutagenic call: active; positive
Test System: CHINESE HAMSTER OVARY, Strain/Indicator: CHO/OUABAIN (HGPRT), Metabolic Activation: NONE, Method: STANDARD PLATE
  mutagenic call: active; positive

## CC(=O)ON(C(C)=O)c1ccc(/C=C/c2ccccc2)cc1
Test System: CHINESE HAMSTER V-79, Strain/Indicator: V-79/6-THIOGUANINE, Metabolic Activation: NONE, Method: STANDARD PLATE
  mutagenic call: active; positive
